# Test results: PubChem BioAssay AID2060885 (Molecular Pharmacology Branch, DTP, NCI, 2025)
# Where “and” joins values, the source holds several entries; their conditions need not be identical. Equal entries are not always repeated.
# System: NCI-H23 complex spheroids with HUVEC/MSC, viability
# Test: Anticancer human tumor NCI-H23 cell line growth inhibition [RAS];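 note: spheroids exposed to compound for 7 days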;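 for viability, T/C: 100% = DMSO vehicle control viability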
# Conditions: for viability, T/C: stronger effect = lower value
# From the text: RAS pathway inhibitors in Combinations in Complex Spheroids
# A high-throughput screen of multi-cell type tumor spheroids was designed to identify active combinations of RAS pathway inhibitors and targeted small molecules. Complex spheroids include a stromal component modeled by human endothelial cells (HUVEC) and fibroblasts modeled by human mesenchymal stem cells (MSCs). The concentration ranges selected for each drug and investigational agent were based upon clinically achievable concentrations if the clinical Cmax of the agent was known.
# Compounds. The drugs and investigational agents: abemaciclib (NSC768073), cobimetinib (NSC768068), divarasib (GDC6063, NSC841802), docetaxel (NSC628503), GDC-1971 (RLY-1971, NSC841576), gemcitabine (NSC613327), inavolisib (NSC800729), ipatasertib (NSC767898), KB-0742 (NSC834161), MRTX-1133 (NSC836407), osimertinib (NSC779217), RMC-4630 (NSC839698), RMC-6236 (NSC851965), RMC-6291 (NSC852671), Ro-3306 (NSC812927), sapanisertib (NSC764658), SN-38 (NSC673596), staurosporine (NSC755774), SY5609 (NSC837396), and tovorafenib (DAY101, NSC766906), were obtained from the National Cancer Institute (NCI) Developmental Therapeutics Program Chemical Repository. The FDA-approved anticancer drug set is available from the NCI Developmental Therapeutics Program. […] The stock solutions were prepared in dimethyl sulfoxide (DMSO, Sigma-Aldrich, St. Louis, MO, cat. D2650) at 800-fold the tested concentration and stored at -70 degrees C prior to their use. All drugs and investigational agents were tested over a range starting from a high concentration at or near the clinical Cmax and decreasing in half-log increments. If the clinical Cmax for an agent had not been determined, the highest concentration tested was 10 microM.
# Cell Culture. All cells were maintained in an incubator at 37 degrees C and 5% CO2 with 95% humidity. The PDC lines were cultured according to standard operating procedures established by the NCI PDMR. All PDCs were thawed and cultured in Matrigel-coated flasks prepared with a working solution of 1X Ham's F-12 nutrient mix, without supplementation (Invitrogen, Waltham, MA, cat. 11765054), 100 U/mL penicillin-streptomycin (Invitrogen, cat. 15140122), and 2.5% Matrigel (Corning Inc., Corning, NY, cat. 354248) for the first three passages. The 362531-283-R-J2-PDC and 782815-120-R-J1-PDC lines were cultured in 6C/Colon 1B media, which includes advanced DMEM/F-12 (Thermo Fisher Scientific, cat. 12634028), 10 mM HEPES (Thermo Fisher Scientific, cat. 15630080), 1X GlutaMAX supplement (Thermo Fisher Scientific, cat. 35050061), 0.1 mg/mL primocin (InvivoGen, San Diego, CA, cat. ant-pm-2), 10% defined fetal bovine serum, heat inactivated (HyClone Laboratories Inc., Logan, UT, cat. SH30070.03HI), 50% L-WRN conditioned media (ATCC, cat. CRL-3276), 1.25 mM N-Acetyl-L-cysteine (Sigma-Aldrich, cat. A9165), 10 mM nicotinamide (Sigma-Aldrich, cat. N0636), 1X B-27 supplement (Thermo Fisher Scientific, cat. 17504044), 1X N-2 supplement (Thermo Fisher Scientific, cat. 17502048), 50 ng/mL human EGF (Thermo Fisher Scientific, cat. PHG0311), and 10 microM Y-27632 dihydrochloride (Tocris Bioscience, cat. 1254). The K12877-001-R-J1-PDC line was cultured in 6I media, which includes all 6C/Colon 1B media plus 10 ng/mL human FGF-10 (PeproTech, cat. 100-26), 1 ng/mL human FGF-2 (PeproTech, cat. 100-18B), 1 µM prostaglandin E2 (Tocris Bioscience, cat. 2296), […] hydrocortisone (Sigma-Aldrich, cat. H4001), and […] bovine insulin (Sigma-Aldrich, cat. I6634). The K86415-001-R-J1-PDC line was cultured in 6D media, which includes all 6C/Colon 1B media components minus the L-WRN conditioned media. The 485176-168-R4-J1-PDC was cultured in PANC media, which includes all 6C/Colon 1B media plus 100 ng/mL human FGF-10 (PeproTech, cat. 100-26), 500 nM SB-431542 (Selleckchem, cat. S1067), and 10 nM gastrin (Tocris Bioscience, cat. 3006). […]
Compound,"viability, T/C (compound 0.0316 µM)","viability, T/C (compound 0.1 µM)","viability, T/C (compound 0.316 µM)","viability, T/C (compound 1 µM)","viability, T/C (compound 3.16 µM)","viability, T/C (compound 10 µM)","IC50 (compound alone, run of 07/15/2024)",IC50 (curve of compound)
C#Cc1c(F)ccc2cc(O)cc(-c3ncc4c(N5CC6CCC(C5)N6)nc(OCC56CCCN5CC(F)C6)nc4c3F)c12 (configuration not stated),108% [middle of 8 runs],105% [middle of 8 runs],99.5% [middle of 8 runs],89.5% [middle of 8 runs],63.2% [middle of 8 runs],38.2% [middle of 7 runs],5.77 µM [middle of 8 runs],
CC(=O)OC12COC1CC(O)C1(C)C(=O)C(O)C3=C(C)C(OC(=O)C(O)C(NC(=O)OC(C)(C)C)c4ccccc4)CC(O)(C(OC(=O)c4ccccc4)C21)C3(C)C (configuration not stated),31.2% [middle of 4 runs],32.3% [middle of 4 runs],28.2% [middle of 4 runs],34.6% [middle of 4 runs],50.4% [middle of 4 runs],63.5% [middle of 4 runs],,< 0.0316 µM
CC(C)NCC(C(=O)N1CCN(c2ncnc3c2C(C)CC3O)CC1)c1ccc(Cl)cc1 (configuration not stated),103% [middle of 4 runs],97.1% [middle of 4 runs],102% [middle of 4 runs],93.3% [middle of 4 runs],73.3% [middle of 4 runs],,,> 10 µM and 9.19 µM and 9.74 µM
CC(Nc1ccc2c(c1)OCCn1cc(N3C(=O)OCC3C(F)F)nc1-2)C(N)=O (configuration not stated),93.5% [middle of 4 runs],89.5% [middle of 4 runs],70.2% and 82.1% and 76.3% (2×),78.9% [middle of 4 runs],71.8% [middle of 4 runs],69.6% [middle of 4 runs],,> 10 µM
CC1(O)CCCC1n1c(=O)c(C(F)F)cc2cnc(NC3CCN(S(C)(=O)=O)CC3)nc21 (configuration not stated),94% [middle of 4 runs],,67.5% [middle of 4 runs],80.9% [middle of 4 runs],71.7% [middle of 4 runs],14.3% [middle of 4 runs],,4.68 µM [middle of 4 runs]
CCC(CC)c1cc(NC2CCC(N)C2)n2nccc2n1 (configuration not stated),106% and 101% and 105% (2×),108% [middle of 4 runs],101% [middle of 4 runs],88.2% [middle of 4 runs],15.2% [middle of 4 runs],0.91% [middle of 4 runs],,1.81 µM [middle of 4 runs]
C[C@@H](NC(=O)c1ncnc(N)c1Cl)c1ncc(C(=O)Nc2cc(C(F)(F)F)c(Cl)cn2)s1,107% [middle of 4 runs],106% and 109% (2×) and 116%,108% [middle of 4 runs],101% (2×) and 99.7% and 106%,90.6% [middle of 4 runs],,,> 10 µM
Cc1nc(N2CCC3(CC2)COC(C)C3N)c(CO)nc1Sc1ccnc(N)c1Cl (configuration not stated),103% [middle of 4 runs],,74.3% [middle of 4 runs],61.8% [middle of 4 runs],52.3% [middle of 4 runs],48.9% [middle of 4 runs],,
NC1c2ccccc2OC12CCN(c1cnc3c(N4CCCc5ncccc54)n[nH]c3n1)CC2 (configuration not stated),72.5% [middle of 4 runs],66.6% [middle of 4 runs],44.9% [middle of 4 runs],42.2% [middle of 4 runs],41.3% [middle of 4 runs],44.1% [middle of 4 runs],,
O=C(c1ccc(F)c(F)c1Nc1ccc(I)cc1F)N1CC(O)([C@@H]2CCCCN2)C1,68.2% [middle of 4 runs],46.3% [middle of 4 runs],34.2% [middle of 4 runs],19.7% [middle of 4 runs],,,,78.2 nM [middle of 4 runs]
